# What was measured:
# Assay in all cases: relative viability (nuclei count vs DMSO), 5 days (fraction); higher = more cells survive
# AGI-6780 + Bortezomib = compound: O=C(Nc1cccc(C(F)(F)F)c1)Nc1cc(S(=O)(=O)NC2CC2)ccc1-c1ccsc1 [AGI-6780] + CC(C)C[C@H](NC(=O)[C@H](Cc1ccccc1)NC(=O)c1cnccn1)B(O)O [Bortezomib] (partner 0.002 µM)
# Method in brief: (§1)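 Cells from lung cancer lines were seeded into 1536-well plates and, one day later, dosed by pin tool. Treatments were either a single drug or a fixed dose of an anchor drug with five library-drug doses (not always all listed) in √10 steps. After 5 days, nuclei were stained in a one-step fixation (final 0.05% Triton X-100, 1% formaldehyde, 1 ug/ml Hoechst) and counted on 4× images, and relative viability is the treated-to-vehicle nuclei ratio, as the median of duplicate plates.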
# AGI-6780 + AZD7762 = compound: O=C(Nc1cccc(C(F)(F)F)c1)Nc1cc(S(=O)(=O)NC2CC2)ccc1-c1ccsc1 [AGI-6780] + NC(=O)Nc1cc(-c2cccc(F)c2)sc1C(=O)N[C@H]1CCCNC1 [AZD7762] (partner 0.2 µM)
# Method in brief: as §1
# AGI-6780 + Lapatinib = compound: O=C(Nc1cccc(C(F)(F)F)c1)Nc1cc(S(=O)(=O)NC2CC2)ccc1-c1ccsc1 [AGI-6780] + CS(=O)(=O)CCNCc1ccc(-c2ccc3ncnc(Nc4ccc(OCc5cccc(F)c5)c(Cl)c4)c3c2)o1 [Lapatinib] (partner 2 µM)
# Method in brief: as §1
# AGI-6780 + Decitabine = compound: O=C(Nc1cccc(C(F)(F)F)c1)Nc1cc(S(=O)(=O)NC2CC2)ccc1-c1ccsc1 [AGI-6780] + Nc1ncn([C@H]2C[C@H](O)[C@@H](CO)O2)c(=O)n1 [Decitabine] (partner 2 µM)
# Method in brief: as §1
Cell Line,relative viability (AGI-6780 + Bortezomib; first compound 0.08 µM),relative viability (AGI-6780 + Bortezomib; first compound 0.253 µM),relative viability (AGI-6780 + Bortezomib; first compound 0.8 µM),relative viability (AGI-6780 + Bortezomib; first compound 2.53 µM),relative viability (AGI-6780 + Bortezomib; first compound 8 µM),relative viability (AGI-6780 + AZD7762; first compound 0.08 µM),relative viability (AGI-6780 + AZD7762; first compound 0.253 µM),relative viability (AGI-6780 + AZD7762; first compound 0.8 µM),relative viability (AGI-6780 + AZD7762; first compound 2.53 µM),relative viability (AGI-6780 + AZD7762; first compound 8 µM),relative viability (AGI-6780 + Lapatinib; first compound 0.08 µM),relative viability (AGI-6780 + Lapatinib; first compound 0.253 µM),relative viability (AGI-6780 + Lapatinib; first compound 0.8 µM),relative viability (AGI-6780 + Lapatinib; first compound 2.53 µM),relative viability (AGI-6780 + Lapatinib; first compound 8 µM),relative viability (AGI-6780 + Decitabine; first compound 0.08 µM),relative viability (AGI-6780 + Decitabine; first compound 0.253 µM),relative viability (AGI-6780 + Decitabine; first compound 0.8 µM),relative viability (AGI-6780 + Decitabine; first compound 2.53 µM),relative viability (AGI-6780 + Decitabine; first compound 8 µM)
HCC-827,0.927,1.1,0.996,1.12,1.15,0.223,0.269,0.356,0.236,0.187,0.201,0.215,0.197,0.191,0.179,0.331,0.314,0.39,0.29,0.336
HOP-62,0.496,0.818,0.737,1.02,0.763,0.659,0.592,0.826,0.846,0.82,0.974,0.888,0.965,1.06,1.06,0.199,0.264,0.235,0.25,0.218
LC-2-ad,1.02,1.05,0.994,1.04,1.01,0.895,0.885,0.921,0.877,0.859,0.943,1.04,0.979,1.02,0.958,0.835,0.804,0.791,0.868,0.793
LCLC-97TM1,0.867,0.78,0.871,0.528,0.68,0.276,0.279,0.445,0.31,0.303,0.803,1.61,1.14,–,1,0.221,0.219,0.304,0.19,0.231
LOU-NH91,0.475,0.597,0.472,0.605,0.512,0.759,0.802,0.79,0.67,0.812,0.773,0.836,0.78,0.587,0.737,0.834,0.811,0.803,0.826,0.802
LU99A,1.11,1.04,0.99,0.92,1.26,0.404,0.422,0.45,0.345,0.421,1.12,0.98,0.976,0.825,1.03,0.889,1.09,0.903,0.805,0.988
LXF-289,1.02,0.993,0.976,1.03,0.957,1.16,1.17,1.11,1.37,0.991,0.903,0.897,0.906,0.936,0.831,0.33,0.393,0.358,0.311,0.366
NCI-H23,1.08,1.2,1.02,0.86,1.19,0.259,0.24,0.23,0.294,0.23,1.17,1.26,1.45,0.931,1.15,0.3,0.327,0.285,0.294,0.313
NCI-H322M,1.08,1.15,1.35,1.27,1.39,–,0.767,0.551,0.555,0.653,0.638,0.57,0.608,0.552,0.626,–,0.799,0.68,0.612,0.708
NCI-H460,1.18,1.09,1.21,1.08,1.05,0.444,0.671,0.684,0.726,0.564,0.872,1.03,1.03,1.07,1.11,0.547,0.453,0.552,0.446,0.512
NCI-H596,–,1.04,0.761,0.918,1.13,1.18,1.06,1.1,0.891,1.01,0.841,1.13,1.05,0.886,1.08,1.65,0.981,0.991,0.73,0.924
NCI-H647,1,1.01,0.735,1.05,1.41,0.425,0.484,0.827,0.401,0.589,0.919,1.18,1.06,0.955,1.3,0.438,0.478,0.411,0.297,0.401
NCI-H650,0.835,0.926,0.882,0.751,0.961,0.81,1.05,1.24,0.92,1.07,0.922,1.07,1.17,0.859,1.05,0.288,0.296,0.377,0.33,0.296
NCI-H727,1.08,0.987,0.786,0.648,0.819,0.45,0.536,0.65,0.589,0.749,1.05,0.961,0.93,0.712,0.811,0.939,0.95,0.857,0.951,0.897
NCI-H838,0.965,0.692,0.952,1.05,1.18,0.988,0.903,0.919,0.932,0.909,1.18,0.99,1.05,0.871,1.23,0.445,0.495,0.479,0.506,0.47
NCI-H1355,1.23,1.28,1.21,1.02,1.24,0.792,0.812,0.769,0.663,0.655,1.03,1.04,0.944,0.685,0.96,0.353,0.419,0.357,0.34,0.355

# — the supplement of paper PMC10307832
